Measurements published in patent US20220218630A1, “METHODS AND FORMULATIONS FOR TREATING VISION DISORDERS” (JeniVision Inc., priority 2019, published 2022).

Columns and labels:
[1] = Ocular bioavailability following application to the periorbital skin of cynomolgus monkeys (LC/MS/MS); assay type: in vivo; details: for tiotropium level in ciliary muscle / tiotropium level in plasma: 208 μg to periorbital skin of one eye
Method: The animals were euthanized at predetermined time points post-dosing: 1, 2, 4, 24 hours. A blood sample and ocular tissue specimens were then taken and prepared for LC/MS/MS analysis.

[2] = tested on: monkey longitudinal ciliary muscle; assay: Isolated monkey longitudinal ciliary muscle preparation contracted by carbachol (tissue bath); assay type: cell-based; details: for contractile effects of a further application of carbachol following wash-out: after wash-out of drug, carbachol re-applied; for effect on ciliary muscle tone: drug added cumulatively 10^−8 M to 10^−5 M
Method: A total of 4 longitudinal strips of ciliary muscle were obtained from one monkey eye. Four tissue baths were used concurrently for each experiment. The monkey ciliary muscle preparations were incubated in Krebs bicarbonate buffer, aerated with 95% O2/5% CO2, containing 10^−6 M indomethacin. The preparations were placed under 200 mg tension with adjustment and allowed to equilibrate for 30 minutes. The temperature was maintained at 37° C. throughout the experiment. After equilibration, the four tissue baths received (50 μL×10^−3M) 10^−6 M carbachol (sufficient to produce a mid-level 40-60% maximal response). If 10^−6 M carbachol was insufficient to cause a meaningful contraction, then (50 μL×3×10^−3M) 3×10^−6 M or (50 μL×10^−2M) 10^−5M was used. The contractile response was allowed to become stable. Tissue tension was recorded on a multi-channel electrophysiological recorder.
When cumulative addition of the drug solutions was completed, the drugs were washed-out by flushing through with buffer three times at a selected volume. Four tissue baths again received 10^−6 M (or selected concentration) carbachol and a stable contractile response was established.

[3] = carbachol pre-contracted preparation

access to the ciliary muscle ([1]; cynomolgus monkey, in vivo) | systemic exposure ([1]; cynomolgus monkey, in vivo) | SMILES | tiotropium level in ciliary muscle ([1]; 1 hr post-dosing) [nM] | tiotropium level in plasma ([1]; 1 hr post-dosing) [nM] | tiotropium level in ciliary muscle ([1]; 2 hr post-dosing) [nM] | tiotropium level in plasma ([1]; 2 hr post-dosing) | tiotropium level in ciliary muscle ([1]; 4 hr post-dosing) [nM] | tiotropium level in plasma ([1]; 4 hr post-dosing) | tiotropium level in ciliary muscle ([1]; 24 hr post-dosing) [nM] | tiotropium level in plasma ([1]; 24 hr post-dosing) | systemic exposure ([1]; periorbital skin application, non-optimized aqueous formulations) | contractile effects of a further application of carbachol following wash-out [2] | effect on ciliary muscle tone [2, 3] | magnitude of relaxation ([2]; carbachol pre-contracted preparation, tiotropium compared with salmeterol)
– | – | C[N+]1(C)[C@@H]2C[C@@H](OC(=O)C(O)(c3cccs3)c3cccs3)C[C@H]1[C@@H]1O[C@@H]12 [tiotropium] | 49 | 4.5 | 77 | BLQ | 5.4 | BLQ | 0 | BLQ | minimal | blunted | dose-related decrease | greater than that recorded for salmeterol
pharmacologically active concentrations | absent | OCc1cc(C(O)CNCCCCCCOCCCCc2ccccc2)ccc1O (stereo not shown) [salmeterol] | – | – | – | – | – | – | – | – | – | blunted | dose-related decrease | –
